How the values were obtained:
[1] = test system: tissue norepinephrine and dopamine levels; test: Tissue catecholamines in beagle dogs, 10, 30, 60 mg/kg/day for 4.5 days; assay type: in vivo
Method: This study was performed to determine the dopamine and norepinephrine concentrations in kidney medulla and kidney cortex from dogs dosed with nepicastat. Adult male beagle dogs were randomly assigned to four groups of 8 dogs per group and dosed by oral administration with nepicastat. Nepicastat was delivered in doses of 5, 15 and 30 mg/kg placed in single capsules. Vehicle was an empty capsule. Each dog received 2 doses daily, morning and afternoon (8-10 hours apart) for four days. On the fifth day, each dog received a single dose in the morning and the dogs were euthanized six hours after the last dose. Samples of kidney medulla and kidney cortex were rapidly harvested, weighed, placed in cold 0.4 M perchloric acid, frozen in liquid nitrogen and stored at −70° C.
To quantitate concentrations of norepinephrine (NE) and dopamine (D), each tissue was homogenized by brief sonication in 0.4 M perchloric acid. After sonication, the homogenates were centrifuged at 13,000 rpm in a microfuge for 30 minutes at 4° C. An aliquot of each supernatant was removed and spiked with 3,4-dihydroxybenzylamine (DHBA) as internal standard. The extract from each sample was subjected to HPLC separation using electrochemical detection. The method has a quantitation limit of 2.0 ng/mL and a linear range of 2.0 ng/mL to 400 ng/mL for each analyte.
Thirty-two male beagle dogs, weighing 10-12 kg, were randomly assigned to one of the following 4 treatment groups (n=8 per group): nepicastat at 0 mg/kg/day (placebo), 10 mg/kg/day (5 mg/kg b.i.d.), 30 mg/kg (15 mg/kg b.i.d.), or 60 mg/kg/day (30 mg/kg b.i.d.). Dog numbers 1-16 were assigned as dose group A and dog numbers 17-32 as dose group B. The terminal surgery for tissue harvest was performed over 2 days with 16 animals studied per day. Two or 3 days before the first compound administration each dog was weighed and skin regions overlying both cephalic, saphenous and jugular veins were shaved. Dosing consisted of oral administration of one capsule with the second given 8-10 hr later. Dogs were dosed as scheduled on days 1-3. On day 4, prior to the AM dose, 3 ml of blood were obtained from a jugular vein for determination of baseline plasma compound levels. The dog was then administered the AM dose, and at 1, 2, 4 and 8 hr following the dose additional 3 ml blood samples were collected for determination of plasma compound levels. Blood samples were put into tubes containing heparin, centrifuged at 4° C. and stored at −20° C. until analysis. The PM dose was then administered as scheduled. The AM dose was administered as scheduled on the days of surgery. Approximately 6 hr after the AM dose, a final 3 ml blood sample was taken from the jugular vein for determination of plasma compound levels. The dog was then anesthetized with pentobarbital Na (˜40 mg/kg), given i.v. in a cephalic or saphenous vein, and delivered to the necropsy room where an additional dose of pentobarbital Na was given (˜80 mg/kg, iv). The left ventricle, renal artery, kidney, renal medulla, renal cortex and cerebral cortex were then rapidly harvested, weighed, put into 2 ml iced 0.4M perchloric acid, frozen in liquid nitrogen and stored at −70° C. until analysis for catecholamines by HPLC using electrochemical detection. All tissue samples were divided into 2 portions, the second of which were immediately frozen in liquid nitrogen and stored at −70° C. for determination of tissue compound levels. A third transmural sample taken from the left ventricle was immediately frozen in liquid nitrogen and stored at −70° C. for use in receptor binding studies.
Ventricles were homogenized in 50 mM Tris-HCl, 5 mM Na2EDTA buffer (pH 7.4 at 4° C.) using a Polytron P-10 tissue disrupter (setting 10, 2×15 second bursts). Homogenates were centrifuged at 500×g for 10 minutes and the supernatants stored on ice. The pellets were washed by resuspension and centrifugation at 500×g and the supernatants combined. […]

[2] = Plasma and tissue compound levels in dogs; assay type: in vivo, beagle dogs
Method: Male Beagle dogs (Marshall farms, North Rose, N.Y.) weighing between 9-16 kg were used in the study. The animals were allowed water ad libitum and given food once daily at ˜10.00 AM. Animals were randomly assigned to one of the following treatment groups (n=8/group): placebo (empty capsule), or nepicastat at 2 mg/kg b.i.d (4 mg/kg/day). Each animal received 2 doses daily, morning and afternoon (8-10 hours apart). Daily blood samples (10 ml) were drawn 6 h after the AM dose for measurement of plasma levels of nepicastat and catecholamines. The blood was collected in tubes containing heparin and glutathione and centrifuged at −4° C. within 1 h of collection. The plasma was separated and divided into two samples, one for the measurement of plasma catecholamines and the other for analysis of nepicastat.
Plasma norepinephrine (NE), dopamine (DA) and epinephrine (EPI) were analyzed by HPLC using electrochemical detection. Plasma concentration of nepicastat was determined by HPLC using electrochemical detection.
Thirty-two male beagle dogs, weighing 10-12 kg, were randomly assigned to one of the following 4 treatment groups (n=8 per group): nepicastat at 0 mg/kg/day (placebo), 10 mg/kg/day (5 mg/kg b.i.d.), 30 mg/kg (15 mg/kg b.i.d.), or 60 mg/kg/day (30 mg/kg b.i.d.). Dog numbers 1-16 were assigned as dose group A and dog numbers 17-32 as dose group B. The terminal surgery for tissue harvest was performed over 2 days with 16 animals studied per day. Two or 3 days before the first compound administration each dog was weighed and skin regions overlying both cephalic, saphenous and jugular veins were shaved. Dosing consisted of oral administration of one capsule with the second given 8-10 hr later. Dogs were dosed as scheduled on days 1-3. On day 4, prior to the AM dose, 3 ml of blood were obtained from a jugular vein for determination of baseline plasma compound levels. The dog was then administered the AM dose, and at 1, 2, 4 and 8 hr following the dose additional 3 ml blood samples were collected for determination of plasma compound levels. […]

[3] = renal medulla, 60 mg/kg/day, marginal (0.05<p<0.10)

Structure (SMILES): Cl.NCc1c[nH]c(=S)n1[C@H]1CCc2c(F)cc(F)cc2C1 [nepicastat, (S)-5-Aminomethyl-1-(5,7-difluoro-1,2,3,4-tetrahydronaphth-2-yl)-2,3-dihydro-2-thioxo-1H-imidazole hydrochloride]
- increase in dopamine ([1]; cerebral cortex, 10 mg/kg/day): 632%
- increase in dopamine/norepinephrine ratio ([1]; cerebral cortex, 10 mg/kg/day): 531%
- decrease in norepinephrine ([1]; cerebral cortex, 30 mg/kg/day): 63%
- increase in dopamine/norepinephrine ratio ([1]; cerebral cortex, 30 mg/kg/day): 86%
- increase in dopamine ([1]; cerebral cortex, 30 mg/kg/day, marginal (0.05<p<0.10)): 174%
- increase in dopamine ([1]; cerebral cortex, 60 mg/kg/day): 411%
- increase in dopamine/norepinephrine ratio ([1]; cerebral cortex, 60 mg/kg/day): 612%
- norepinephrine levels vs placebo ([1]; cerebral cortex, 10 and 60 mg/kg/day): not significantly (p>0.01) affected
- dose at which the plateau in DBH inhibition response begins ([1]; heart, renal artery and kidney): 10 mg/kg/day
- decrease in norepinephrine ([1]; left ventricle, 10 mg/kg/day): 85%
- increase in dopamine/norepinephrine ratio ([1]; left ventricle, 10 mg/kg/day): 852%
- decrease in norepinephrine ([1]; left ventricle, 30 mg/kg/day): 58%
- increase in dopamine/norepinephrine ratio ([1]; left ventricle, 30 mg/kg/day): 279%
- decrease in norepinephrine ([1]; left ventricle, 60 mg/kg/day): 79%
- increase in dopamine/norepinephrine ratio ([1]; left ventricle, 60 mg/kg/day): 607%
- dopamine levels vs placebo ([1]; left ventricle, 10, 30 and 60 mg/kg/day): No significant changes
- decrease in norepinephrine ([1]; renal artery, 10 mg/kg/day): 86%
- increase in dopamine ([1]; renal artery, 10 mg/kg/day): 180%
- increase in dopamine/norepinephrine ratio ([1]; renal artery, 10 mg/kg/day): 1711%
- decrease in norepinephrine ([1]; renal artery, 30 mg/kg/day): 81%
- increase in dopamine ([1]; renal artery, 30 mg/kg/day): 273%
- increase in dopamine/norepinephrine ratio ([1]; renal artery, 30 mg/kg/day): 1767%
- decrease in norepinephrine ([1]; renal artery, 60 mg/kg/day): 85%
- increase in dopamine ([1]; renal artery, 60 mg/kg/day): 268%
- increase in dopamine/norepinephrine ratio ([1]; renal artery, 60 mg/kg/day): 1944%
- decrease in norepinephrine ([1]; renal cortex, 10 mg/kg/day): 86%
- increase in dopamine ([1]; renal cortex, 10 mg/kg/day): 156%
- increase in dopamine/norepinephrine ratio ([1]; renal cortex, 10 mg/kg/day): 1653%
- decrease in norepinephrine ([1]; renal cortex, 30 mg/kg/day): 66%
- increase in dopamine ([1]; renal cortex, 30 mg/kg/day): 502%
- increase in dopamine/norepinephrine ratio ([1]; renal cortex, 30 mg/kg/day): 1440%
- decrease in norepinephrine ([1]; renal cortex, 60 mg/kg/day): 85%
- increase in dopamine ([1]; renal cortex, 60 mg/kg/day): 208%
- increase in dopamine/norepinephrine ratio ([1]; renal cortex, 60 mg/kg/day): 1693%
- decrease in norepinephrine ([1]; renal medulla, 10 mg/kg/day): 72%
- increase in dopamine/norepinephrine ratio ([1]; renal medulla, 10 mg/kg/day): 555%
- increase in dopamine ([1]; renal medulla, 10 mg/kg/day, marginal (0.05<p<0.10)): 150%
- increase in dopamine ([1]; renal medulla, 30 mg/kg/day): 522%
- increase in dopamine/norepinephrine ratio ([1]; renal medulla, 30 mg/kg/day): 636%
- increase in dopamine/norepinephrine ratio ([1]; renal medulla, 60 mg/kg/day): 677%
- decrease in norepinephrine [1, 3]: 69%
- increase in dopamine [1, 3]: 156%
- time of peak plasma levels of the drug ([2]; 2 mg/kg bid, sampled 6 h after AM dose): 2 days post-dose
- dose proportionality of nepicastat concentration in plasma and tissue ([2]; 10, 30, 60 mg/kg/day, Day 4 and Day 5): dose-proportional
- levels of nepicastat in tissues vs plasma ([2]; Day 5, all tissues examined): higher than those in plasma

From patent US10561638B2, “Methods for treating dependence” (Biotie Therapies, Inc., priority 2007, dated 2020)
